For data set [1] the following is noted: aqueous solution at physiologic pH; cited from earlier work.
The next data set concerns ciliary motility. The note with it: cited from earlier work.
The conditions of data set [2]: 0.5 mg/mL in phosphate buffer, pH 7.4; vortex mixing 1 min; cited from earlier work.
For data set [3] the following is noted: anesthetized rats, cited from earlier work.
In another data set the test system is aminopeptidases. The note with it: cited from earlier work.

Read-outs that look alike come from different tables or passages of the source.

As for `CCN(CC)/[N+]([O-])=N/O.CCNCC` [diethylamine/NO], the NO release time in data set [1] is under 3 min.
In the case of “2-alkyl-4-hydroxyquinolines [pyo compound]”, in the data set with ciliary motility, the “concentration producing ciliostasis / inhibiting ciliary motility” value was 50 µg/mL.
For orientation: melting point means the temperature, or range, at which the solid turns liquid. `CC(C(=O)[O-])c1ccc(NC(=O)c2ccccc2O)cc1.[Na+]` (stereo not drawn) [Sodium Salt of Carrier B, Sodium 2-(4-(N-salicyloyl)aminophenyl)propionate] came in with a melting point of 236 to 238 °C.
Regarding “human growth hormone (hGH): peptide hormone human growth hormone”, the “drug precipitated as insoluble aggregates” value in data set [2] was 67%. Further, the nasal bioavailability is 12.2% in data set [3] (with N-acetyl-L-cysteine (ACS)) and 7.5% in data set [3] (without N-acetyl-L-cysteine).
Regarding `NCCN(CCN)/[N+]([O-])=N/O` [diethylenetriamine/NO (DETANO), diethylenetriamine/NO], the NO release time result in data set [1] was “approximately 20 hours”.
Regarding `CC(C)CC(N)B(O)O` (stereo not drawn) [boro-leucine], in the data set on aminopeptidases, the “effectiveness in enzyme inhibition relative to bestatin” value is given as “more than 100 times” and the “effectiveness in enzyme inhibition relative to puromycin” value was “more than 1000 times”.

The values above are taken from US7229966B2, “Compositions and methods for enhanced mucosal delivery of Y2 receptor-binding peptides and methods for treating and preventing obesity” (Nastech Pharmaceutical Company Inc., priority 2002, dated 2007).
